Results on one compound are retold here after ChEMBL document CHEMBL1275422, “Cerebrospinal fluid compartmental pharmacokinetics of amikacin in neonates” (Antimicrob Agents Chemother, 2008).

Where only a bound is given, the exact number is not on record here.

Data set [1] can be described thus: Drug uptake in human adult CSF at 75 mg, im up to 8.5 hrs by HPLC. The class given is ADME, organism-based, Cerebrospinal fluid. Details: dose 75 mg, route intramuscular.
A short description of data set [2]: Cmax in human neonate serum after 25 hrs by fluorescence polarization immunoassay. It counts as ADME, organism-based. (Polarisation of emitted light reports the rotation of a fluorescent probe.)
Data set [3] is described as follows: Cmin in human neonate serum after 25 hrs by fluorescence polarization immunoassay. The class given is ADME. To be noted: read-out: Cmin.
A short description of data set [4]: Drug uptake in human neonate CSF after 25 hrs by HPLC. The class given is ADME, organism-based, Cerebrospinal fluid.
Data set [5] in a line: Cmax in human neonate at 10 mg/kg, iv by HPLC. It counts as ADME, organism-based. On the set-up: dose 10 mg/kg, route intravenous. To be noted: in vivo.

One may read the Cmax as the peak of the concentration-time curve. Turning to `NCC[C@H](O)C(=O)N[C@@H]1C[C@H](N)[C@@H](O[C@H]2O[C@H](CN)[C@@H](O)[C@H](O)[C@H]2O)[C@H](O)[C@H]1O[C@H]1O[C@H](CO)[C@@H](O)[C@H](N)[C@H]1O` [AMIKACIN], the Cmax in data set [1] was less than 500 ng/mL; in data set [2] it was 35700 ng/mL; in data set [4], 1080 ng/mL; in data set [5], less than 200 ng/mL. In addition, the concentration at 25 h in data set [3] was determined as 3800 ng/mL.
